{"source": "patent US20210177814A1", "about": "“USE OF GUANABENZ OR DERIVATES THEREOF FOR THE TREATMENT OF TYPE I IFN-DEPENDENT PATHOLOGIES” (INSERM (Institut National de la Santé et de la Recherche …, priority 2018, published 2021)", "molecular_target": "T1, TLR9 (Homo sapiens, UniProt Q9NR96)", "T1 sequence (Q9NR96 26-1032)": "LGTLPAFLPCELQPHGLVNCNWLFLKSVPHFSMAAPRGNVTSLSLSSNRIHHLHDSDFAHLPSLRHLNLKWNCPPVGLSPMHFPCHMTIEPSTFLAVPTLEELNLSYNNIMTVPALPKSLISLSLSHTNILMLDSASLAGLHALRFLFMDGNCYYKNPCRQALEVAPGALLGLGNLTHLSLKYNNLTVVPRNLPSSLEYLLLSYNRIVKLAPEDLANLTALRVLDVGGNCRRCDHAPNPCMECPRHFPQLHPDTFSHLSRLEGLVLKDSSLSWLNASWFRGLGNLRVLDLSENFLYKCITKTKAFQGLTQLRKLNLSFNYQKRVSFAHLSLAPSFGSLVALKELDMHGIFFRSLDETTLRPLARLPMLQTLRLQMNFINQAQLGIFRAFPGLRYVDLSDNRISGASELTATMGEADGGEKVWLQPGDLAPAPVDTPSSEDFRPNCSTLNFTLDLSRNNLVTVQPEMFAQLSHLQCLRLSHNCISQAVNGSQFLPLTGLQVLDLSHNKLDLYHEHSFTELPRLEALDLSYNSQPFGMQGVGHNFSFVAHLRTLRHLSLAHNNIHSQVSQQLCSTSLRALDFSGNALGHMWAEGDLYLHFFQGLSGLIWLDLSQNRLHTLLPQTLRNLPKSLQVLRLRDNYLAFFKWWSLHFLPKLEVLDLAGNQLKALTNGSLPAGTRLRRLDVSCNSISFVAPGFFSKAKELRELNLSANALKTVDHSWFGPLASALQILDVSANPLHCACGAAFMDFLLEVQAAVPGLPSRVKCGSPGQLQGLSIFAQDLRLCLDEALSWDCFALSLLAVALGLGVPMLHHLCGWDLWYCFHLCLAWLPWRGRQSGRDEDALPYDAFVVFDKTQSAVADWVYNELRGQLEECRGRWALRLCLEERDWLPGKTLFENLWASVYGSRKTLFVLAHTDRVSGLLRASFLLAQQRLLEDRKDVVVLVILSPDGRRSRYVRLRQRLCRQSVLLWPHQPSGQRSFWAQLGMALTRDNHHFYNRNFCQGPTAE", "test": "HEK-Blue hTLR9 SEAP reporter assay", "assay_type": "cell-based", "design": "expressed in transfected cells; host or cells: HEK-Blue (HEK 293) hTLR9 reporter cells", "conditions": "2.5 μM ODN 2006, GBZ 50 μM", "protocol": "FIG. 1: Guanabenz inhibits TLR3 and TLR9 activation in mouse Flt3-L DCs and human blood pDCs. A) Sorted bone marrow derived Flt3L-DCs were activated for 6 h with 10 μg/mL poly I:C LMW (TLR3 in DC1) or 1 μM ODN 1585 (TLR9 in pDCs). GBZ was added at 50 μM and inhibited IFN-β and Interleukin-6 (IL-6) production in activated cells. B) hTLR4, hTLR3, hTLR9 and hTLR7 expressed in the reporter HEK-Blue™ cells are inhibited by GBZ. TLR-expressing HEK-Blue™ cells were respectively activated with 100 ng/mL LPS, 10 μg/mL poly I:C LMW, 2.5 μM ODN 2006 or 5 μg/mL imiquimod, respectively. GBZ was added at 50 μM. TLR activity was measured indirectly through SEAP activity as absorbance at 405 nm. […] Protein concentration of IFN-α and TNF-α secreted were measured at the indicated time points or at 16 h. […]\nGiven the efficiency of GBZ on mouse TLR3 and TLR9, we turned to human TLRs, in order to extend the relevance of our observations. GBZ-mediated inhibition was first evaluated on NF-kB signaling by monitoring secreted alkaline phosphatase (SEAP) reporter levels in HEK-293 cells expressing TLR3, TLR4, TLR7, TLR9 (FIG. 1B). […] The functionality of the TLR9 transduction pathway was next evaluated by using phospho-flow detection of 40S ribosomal protein S6 (rpS6) phosphorylation, a well characterized early signaling event down-stream of TLR activation by LPS or viruses."}
{"compound": "NC(N)=N/N=C/c1c(Cl)cccc1Cl", "note": "[GBZ, 2-(2,6-dichlorobenzylidene)-hydrazinecarboximidamide]", "values": [{"measurement": "TLR9-dependent activation of the SEAP reporter", "value": "inhibited"}]}
